Test results as given in patent US20250275540A1, “USE OF PROTOPORPHYRINOGEN OXIDASE” (BEIJING DABEINONG BIOTECHNOLOGY CO., LTD., priority 2022, published 2025).

Test system: transgenic soybean plants
Test: Detection of the herbicide tolerance of the transgenic soybean plants
Assay type: in vivo
Details: for The grade of pesticide damage/plant: 0 / The grade of pesticide damage/plant: 1 / The grade of pesticide damage/plant: 2 / The grade of pesticide damage/plant: 3: 7 DAT
[1] = genotype Control vector, 120 g ai/ha
[2] = genotype Control vector, 240 g ai/ha
[3] = genotype PPO-AP-01, 120 g ai/ha
[4] = genotype PPO-AP-01, 240 g ai/ha
[5] = genotype PPO-EC-01, 120 g ai/ha
[6] = genotype PPO-EC-01, 240 g ai/ha

Q: `C#CCN1C(=O)COc2cc(F)c(N3C(=O)C4=C(CCCC4)C3=O)cc21` [flumioxazin, 2-[7-fluoro-3,4-dihydro-3-oxo-4-(2-propynyl)-2H-1,4-benzoxazin-6-yl]-4,5,6,7-tetrahydro-1H-isoindole-1,3(2H)-dione] was tested. Which “The grade of pesticide damage/plant: 0” value (genotype CK, 120 g ai/ha) did it give?
A: 0 plant

Q: And the “The grade of pesticide damage/plant: 1” value (genotype CK, 120 g ai/ha)?
A: 0 plant

Q: What about the “The grade of pesticide damage/plant: 2” value (genotype CK, 120 g ai/ha) of the same compound?
A: 0 plant

Q: What about the “The grade of pesticide damage/plant: 3” value (genotype CK, 120 g ai/ha) of the same compound?
A: 16 plant

Q: What about the “The grade of pesticide damage/plant: 0” value (genotype CK, 240 g ai/ha) of the same compound?
A: 0 plant

Q: And the “The grade of pesticide damage/plant: 1” value (genotype CK, 240 g ai/ha)?
A: 0 plant

Q: And the “The grade of pesticide damage/plant: 2” value (genotype CK, 240 g ai/ha)?
A: 0 plant

Q: And the “The grade of pesticide damage/plant: 3” value (genotype CK, 240 g ai/ha)?
A: 16 plant

Q: What about the “The grade of pesticide damage/plant: 0” value [1] of the same compound?
A: 0 plant

Q: And the “The grade of pesticide damage/plant: 1” value [1]?
A: 0 plant

Q: What about the “The grade of pesticide damage/plant: 2” value [1] of the same compound?
A: 0 plant

Q: What about the “The grade of pesticide damage/plant: 3” value [1] of the same compound?
A: 16 plant

Q: And the “The grade of pesticide damage/plant: 0” value [2]?
A: 0 plant

Q: What about the “The grade of pesticide damage/plant: 1” value [2] of the same compound?
A: 0 plant

Q: What about the “The grade of pesticide damage/plant: 2” value [2] of the same compound?
A: 0 plant

Q: And the “The grade of pesticide damage/plant: 3” value [2]?
A: 16 plant

Q: And the “The grade of pesticide damage/plant: 0” value [3]?
A: 0 plant

Q: What about the “The grade of pesticide damage/plant: 1” value [3] of the same compound?
A: 0 plant

Q: What about the “The grade of pesticide damage/plant: 2” value [3] of the same compound?
A: 0 plant

Q: What about the “The grade of pesticide damage/plant: 3” value [3] of the same compound?
A: 16 plant

Q: And the “The grade of pesticide damage/plant: 0” value [4]?
A: 0 plant

Q: What about the “The grade of pesticide damage/plant: 1” value [4] of the same compound?
A: 0 plant

Q: And the “The grade of pesticide damage/plant: 2” value [4]?
A: 0 plant

Q: And the “The grade of pesticide damage/plant: 3” value [4]?
A: 16 plant

Q: What about the “tolerance to the herbicide (in words)” value (genotype PPO-AP-01, at different concentrations) of the same compound?
A: no flumioxazin tolerance

Q: And the “The grade of pesticide damage/plant: 0” value [5]?
A: 16 plant

Q: And the “The grade of pesticide damage/plant: 1” value [5]?
A: 0 plant

Q: And the “The grade of pesticide damage/plant: 2” value [5]?
A: 0 plant

Q: And the “The grade of pesticide damage/plant: 3” value [5]?
A: 0 plant

Q: What about the “The grade of pesticide damage/plant: 0” value [6] of the same compound?
A: 15 plant

Q: What about the “The grade of pesticide damage/plant: 1” value [6] of the same compound?
A: 1 plant

Q: What about the “The grade of pesticide damage/plant: 2” value [6] of the same compound?
A: 0 plant

Q: And the “The grade of pesticide damage/plant: 3” value [6]?
A: 0 plant

Q: What about the “The grade of pesticide damage/plant: 0” value (genotype PPOA-01, 120 g ai/ha) of the same compound?
A: 16 plant

Q: And the “The grade of pesticide damage/plant: 1” value (genotype PPOA-01, 120 g ai/ha)?
A: 0 plant

Q: What about the “The grade of pesticide damage/plant: 2” value (genotype PPOA-01, 120 g ai/ha) of the same compound?
A: 0 plant

Q: And the “The grade of pesticide damage/plant: 3” value (genotype PPOA-01, 120 g ai/ha)?
A: 0 plant

Q: What about the “The grade of pesticide damage/plant: 0” value (genotype PPOA-01, 240 g ai/ha) of the same compound?
A: 14 plant

Q: And the “The grade of pesticide damage/plant: 1” value (genotype PPOA-01, 240 g ai/ha)?
A: 2 plant

Q: And the “The grade of pesticide damage/plant: 2” value (genotype PPOA-01, 240 g ai/ha)?
A: 0 plant

Q: What about the “The grade of pesticide damage/plant: 3” value (genotype PPOA-01, 240 g ai/ha) of the same compound?
A: 0 plant

Q: And the “The grade of pesticide damage/plant: 0” value (genotype PPOB-01, 120 g ai/ha)?
A: 16 plant

Q: And the “The grade of pesticide damage/plant: 1” value (genotype PPOB-01, 120 g ai/ha)?
A: 0 plant

Q: And the “The grade of pesticide damage/plant: 2” value (genotype PPOB-01, 120 g ai/ha)?
A: 0 plant

Q: What about the “The grade of pesticide damage/plant: 3” value (genotype PPOB-01, 120 g ai/ha) of the same compound?
A: 0 plant

Q: And the “The grade of pesticide damage/plant: 0” value (genotype PPOB-01, 240 g ai/ha)?
A: 15 plant

Q: And the “The grade of pesticide damage/plant: 1” value (genotype PPOB-01, 240 g ai/ha)?
A: 1 plant

Q: And the “The grade of pesticide damage/plant: 2” value (genotype PPOB-01, 240 g ai/ha)?
A: 0 plant

Q: And the “The grade of pesticide damage/plant: 3” value (genotype PPOB-01, 240 g ai/ha)?
A: 0 plant

Q: And the “The grade of pesticide damage/plant: 0” value (genotype PPOC-01, 120 g ai/ha)?
A: 16 plant

Q: And the “The grade of pesticide damage/plant: 1” value (genotype PPOC-01, 120 g ai/ha)?
A: 0 plant

Q: What about the “The grade of pesticide damage/plant: 2” value (genotype PPOC-01, 120 g ai/ha) of the same compound?
A: 0 plant

Q: And the “The grade of pesticide damage/plant: 3” value (genotype PPOC-01, 120 g ai/ha)?
A: 0 plant

Q: What about the “The grade of pesticide damage/plant: 0” value (genotype PPOC-01, 240 g ai/ha) of the same compound?
A: 16 plant

Q: And the “The grade of pesticide damage/plant: 1” value (genotype PPOC-01, 240 g ai/ha)?
A: 0 plant

Q: And the “The grade of pesticide damage/plant: 2” value (genotype PPOC-01, 240 g ai/ha)?
A: 0 plant

Q: What about the “The grade of pesticide damage/plant: 3” value (genotype PPOC-01, 240 g ai/ha) of the same compound?
A: 0 plant

Q: And the “The grade of pesticide damage/plant: 0” value (genotype PPOD-01, 120 g ai/ha)?
A: 16 plant

Q: And the “The grade of pesticide damage/plant: 1” value (genotype PPOD-01, 120 g ai/ha)?
A: 0 plant

Q: And the “The grade of pesticide damage/plant: 2” value (genotype PPOD-01, 120 g ai/ha)?
A: 0 plant

Q: What about the “The grade of pesticide damage/plant: 3” value (genotype PPOD-01, 120 g ai/ha) of the same compound?
A: 0 plant

Q: What about the “The grade of pesticide damage/plant: 0” value (genotype PPOD-01, 240 g ai/ha) of the same compound?
A: 16 plant

Q: And the “The grade of pesticide damage/plant: 1” value (genotype PPOD-01, 240 g ai/ha)?
A: 0 plant

Q: What about the “The grade of pesticide damage/plant: 2” value (genotype PPOD-01, 240 g ai/ha) of the same compound?
A: 0 plant

Q: What about the “The grade of pesticide damage/plant: 3” value (genotype PPOD-01, 240 g ai/ha) of the same compound?
A: 0 plant

Q: What about the “The grade of pesticide damage/plant: 0” value (genotype PPOE-01, 120 g ai/ha) of the same compound?
A: 16 plant

Q: What about the “The grade of pesticide damage/plant: 1” value (genotype PPOE-01, 120 g ai/ha) of the same compound?
A: 0 plant

Q: What about the “The grade of pesticide damage/plant: 2” value (genotype PPOE-01, 120 g ai/ha) of the same compound?
A: 0 plant

Q: What about the “The grade of pesticide damage/plant: 3” value (genotype PPOE-01, 120 g ai/ha) of the same compound?
A: 0 plant

Q: What about the “The grade of pesticide damage/plant: 0” value (genotype PPOE-01, 240 g ai/ha) of the same compound?
A: 15 plant

Q: What about the “The grade of pesticide damage/plant: 1” value (genotype PPOE-01, 240 g ai/ha) of the same compound?
A: 1 plant

Q: What about the “The grade of pesticide damage/plant: 2” value (genotype PPOE-01, 240 g ai/ha) of the same compound?
A: 0 plant

Q: What about the “The grade of pesticide damage/plant: 3” value (genotype PPOE-01, 240 g ai/ha) of the same compound?
A: 0 plant

Q: And the “The grade of pesticide damage/plant: 0” value (genotype PPOF-01, 120 g ai/ha)?
A: 16 plant

Q: What about the “The grade of pesticide damage/plant: 1” value (genotype PPOF-01, 120 g ai/ha) of the same compound?
A: 0 plant

Q: What about the “The grade of pesticide damage/plant: 2” value (genotype PPOF-01, 120 g ai/ha) of the same compound?
A: 0 plant

Q: And the “The grade of pesticide damage/plant: 3” value (genotype PPOF-01, 120 g ai/ha)?
A: 0 plant

Q: And the “The grade of pesticide damage/plant: 0” value (genotype PPOF-01, 240 g ai/ha)?
A: 14 plant

Q: What about the “The grade of pesticide damage/plant: 1” value (genotype PPOF-01, 240 g ai/ha) of the same compound?
A: 2 plant

Q: What about the “The grade of pesticide damage/plant: 2” value (genotype PPOF-01, 240 g ai/ha) of the same compound?
A: 0 plant

Q: And the “The grade of pesticide damage/plant: 3” value (genotype PPOF-01, 240 g ai/ha)?
A: 0 plant

Q: And the “tolerance to the herbicide (in words)” value (genotypes PPOA-01 to PPOF-01 and PPO-EC-01, at different concentrations)?
A: high-resistant tolerance
